Measured values taken from US7138425B2, “Phthalimide carboxylic acid derivatives” (Oxford Glycoscience (UK) Ltd., priority 2002, dated 2006).

Tests used:
human endothelial cells = experiment: Angiogenesis assay (AngioKit, tubule formation, PECAM-1 staining); format: cell-based; conditions: Endothelial cell, 264 h, AngioKit co-culture, tubule formation on day 11, PECAM-1 staining relative to untreated control, read-out: Inhibition of angiogenesis (IC50)
From the text: A commercial angiogenesis assay for analysing the angiogenic or anti-angiogenic properties of test compounds (AngioKit catalogue no. ZHA-1000, TCS CellWorks Ltd, Buckingham, U.K) was used. In this assay, human endothelial cells were co-cultured with other human cells in a specifically designed medium. The endothelial cells initially form small islands within the culture matrix. They subsequently proliferate and then enter a migratory phase during which they move through the matrix to form threadlike tubule structures. These gradually join up (by 12–14 days) to form networks of […] tubules which closely resemble a capillary bed structure. These tubules stain positive for von Willebrand's Factor, Platelet Endothelial Cell Adhesion Molecule-1 (PECAM-1 or CD31) and Intercellular Adhesion Molecule-2 (ICAM-2).
The assay is supplied as growing cultures at the earliest stage of tubule formation in a 24 well plate format It is designed so that test compounds and conditioned media can be added to the cultures within individual wells. The resulting effect on tubule formation can then be monitored. Positive and negative test agents are provided in the kit, e.g. Vascular Endothelial Growth Factor (VEGF) and sumarin. All reagents were included as part of the kit and the assay was performed according to the protocol supplied by TCS CellWorks Ltd. Briefly, on day 1, fresh growth medium, medium plus control agent or medium plus test compound was added to the cells and the cultures were incubated at 37° C., 5% CO2. […] The specified medium was changed at days 4, 7 and 9 and the cells were monitored for growth. On day 11, the cells were washed with Dulbecco's Phosphate-Buffered Saline (PBS) and fixed using 70% ethanol (−20° C.) for 30 min at room temperature. After fixing, the cells were washed and treated with blocking buffer, 1% BSA in PBS. The cells were stained for PECAM-1 on the same day, following standard immunohistochemistry procedures well known to those skilled in the art, using mouse anti-human CD31 as the primary antibody and a goat anti-mouse IgG alkaline phosphate conjugate. Tubule formation was quantitatively assessed by measuring PECAM-1 positive staining using the image analysis program “Matrox inspector” to evaluate the percentage tubule staining relative to an untreated control.

human heparanase = target: T1, human heparanase (Homo sapiens, UniProt Q9Y251); experiment: Heparanase assay (bFGF binding to heparan sulfate, plate ELISA); format: biochemical; conditions: human heparanase expressed in insect cells, pH 5.5, 2 h at 37° C.; read-out: Inhibition of Heparanase (IC50)
T1 construct: made in house; host or cells: insect cells
T1 sequence (Q9Y251 158-543 limits assumed): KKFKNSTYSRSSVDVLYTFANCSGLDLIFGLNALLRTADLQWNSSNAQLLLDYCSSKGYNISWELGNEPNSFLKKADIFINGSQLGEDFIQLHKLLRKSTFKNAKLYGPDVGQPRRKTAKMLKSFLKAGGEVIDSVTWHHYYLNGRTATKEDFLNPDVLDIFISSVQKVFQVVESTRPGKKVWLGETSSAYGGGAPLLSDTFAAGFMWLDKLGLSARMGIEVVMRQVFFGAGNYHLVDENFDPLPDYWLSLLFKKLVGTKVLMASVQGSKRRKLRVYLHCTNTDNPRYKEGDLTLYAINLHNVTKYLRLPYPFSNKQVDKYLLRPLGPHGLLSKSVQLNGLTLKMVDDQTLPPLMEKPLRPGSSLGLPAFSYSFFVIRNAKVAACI
T1 sequence (Q9Y251 36-109 limits assumed): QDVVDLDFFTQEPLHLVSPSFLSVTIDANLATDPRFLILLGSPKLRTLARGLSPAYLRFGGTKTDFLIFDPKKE
Description: The assay is based upon the specific binding of basic fibroblast growth factor (bFGF) to heparan sulfate. […] Heparan sulfate will ordinarly adhere to plastic well plate surfaces. Following cleavage of high molecular weight heparan sulfate by heparanase, the smaller material generated will no longer adhere to the surface of a well plate. Thus, upon addition to the plate of bFGF, heparanase activity can be followed as a reduction in bFGF binding.
Nunc Maxisorp 96-well plates are coated for 16 h at room temperature with 100 μl/well 0.04 mg/ml heparan sulfate in PBS. The wells are then aspirated and blocked for 1 h with 200 μl/well 1% BSA-PBS. Following five washes with 0.01% BSA, 0.05% Tween20 PBS (wash buffer), 100 μl of recombinant human basic FGF (90 ng/ml in 0.1% BSA/PBS) is added per well and the plate is incubated at room temperature for 1 h.
The human heparanase used is expressed in insect cells. The wells are washed again with wash buffer and 100 μl of bFGF antibody-horse radish peroxidase conjugate is added. The plate is then incubated at room temperature for 1 h and subsequently washed five times with wash buffer. 100 μl of TMB peroxidase substrate is added and the colour allowed to develop for 10 min. The reaction is stopped with 50 μl 1M H2SO4 and the colour intensity is read at 450 nm on a plate reader.

| Structure (SMILES) | IC50 (human endothelial cells) | IC50 (human heparanase) |
| --- | --- | --- |
| CCCNc1ccc(N2C(=O)c3ccc(C(=O)O)cc3C2=O)cc1-c1nc2cc(-c3ccc(OC(F)(F)F)cc3)ccc2o1 [Example 116, 2-[4-Propylamino-5-[5-(4-trifluoromethoxy)phenylbenzoxazol-2-yl]phenyl]-1,3-dioxo-2,3-dihydro-1H-isoindole-5-carboxylic acid] | 100 nM | – |
| CCCNc1ccc(N2C(=O)c3ccc(C(=O)O)cc3C2=O)cc1-c1nc2ccc(F)cc2o1 [Example 66, 2-[3-(6-Fluorobenzoxazol-2-yl)-4-propylaminophenyl]-1,3-dioxo-2,3-dihydro-1H-isoindole-5-carboxylic acid] | 2000 nM | 800 nM |
| COc1ccc(-c2ccc3oc(-c4ccc(OC)c(N5C(=O)c6ccc(C(=O)O)cc6C5=O)c4)nc3c2)cc1 [Example 27, 2-[2-Methoxy-5-[5-(4-methoxy)phenylbenzoxazol-2-yl]phenyl]-1,3-dioxo-2,3-dihydro-1H-isoindole-5-carboxylic acid] | 15000 nM | – |
| CCCNc1ccc(N2C(=O)c3ccc(C(=O)O)cc3C2=O)cc1-c1nc2cc(-c3ccc(Cl)cc3)ccc2o1 [Example 112, 2-[4-Propylamino-5-[5-(4-chlorophenyl)benzoxazol-2-yl]phenyl]-1,3-dioxo-2,3-dihydro-1H-isoindole-5-carboxylic acid] | 2000 nM | – |
| COc1ccc(-c2nc3cc(-c4cc5ccccc5o4)ccc3o2)cc1N1C(=O)c2ccc(C(=O)O)cc2C1=O [Example 15, 2-[2-Methoxy-5-[5-(benzofuran-2-yl)benzoxazol-2-yl]phenyl]-1,3-dioxo-2,3-dihydro-1H-isoindole-5-carboxylic acid] | 1000 nM | 500 nM |
| COc1ccc(-c2nc3cc(-c4ccc(N(C)C)cc4)ccc3o2)cc1N1C(=O)c2ccc(C(=O)O)cc2C1=O [Example 97, 2-[2-Methoxy-5-[5-(4-N,N-dimethylaminophenyl)benzoxazol-2-yl]phenyl]-1,3-dioxo-2,3-dihydro-1H-isoindole-5-carboxylic acid] | 2000 nM | 800 nM |
| COc1ccc(N2C(=O)c3ccc(C(=O)O)cc3C2=O)cc1-c1nc2cc(-c3ccc4c(c3)OCO4)ccc2o1 [Example 105, 2-[4-Methoxy-5-[5-(3,4-methylenedioxyphenyl)benzoxazol-2-yl]phenyl]-1,3-dioxo-2,3-dihydro-1H-isoindole-5-carboxylic acid] | 3000 nM | – |
| COc1ccc(-c2nc3cc(-c4cc5ccccc5s4)ccc3o2)cc1N1C(=O)c2ccc(C(=O)O)cc2C1=O [Example 92, 2-[2-Methoxy-5-[5-(2-benzothiophenyl)benzoxazol-2-yl]phenyl]-1,3-dioxo-2,3-dihydro-1H-isoindole-5-carboxylic acid] | 200 nM | 400 nM |
| CCCNc1ccc(N2C(=O)c3ccc(C(=O)O)cc3C2=O)cc1-c1nc2cc(-c3ccc(F)cc3)ccc2o1 [Example 115, 2-[4-Propylamino-5-[5-(4-fluorophenyl)benzoxazol-2-yl]phenyl]-1,3-dioxo-2,3-dihydro-1H-isoindole-5-carboxylic acid] | 250 nM | – |
| O=C(O)c1ccc2c(c1)C(=O)N(c1cccc(-c3nc4cc5ccccc5cc4o3)c1)C2=O [Example 2, 2-[3-(Naphth[2,3-d]oxazol-2-yl)phenyl]-2,3-dihydro-1,3-dioxo-1H-isoindole-5-carboxylic acid] | 5000 nM | 700 nM |
| CCCNc1ccc(N2C(=O)c3ccc(C(=O)O)cc3C2=O)cc1-c1nc2cc(-c3cc4ccccc4s3)ccc2o1 [Example 110, 2-[4-Propylamino-5-[5-(2-benzothiophenyl)benzoxazol-2-yl]phenyl]-1,3-dioxo-2,3-dihydro-1H-isoindole-5-carboxylic acid] | 5000 nM | 600 nM |
| O=C(O)c1ccc2c(c1)C(=O)N(c1cccc(-c3nc4ccccc4o3)c1)C2=O [Example 1, 2-[3-(Benzoxazol-2-yl)phenyl]-2,3-dihydro-1,3-dioxo-1H-isoindole-5-carboxylic acid] | 40000 nM | – |
| COc1ccc(N2C(=O)c3ccc(C(=O)O)cc3C2=O)cc1-c1nc2cc(-c3cc(F)cc(F)c3)ccc2o1 [Example 104, 2-[4-Methoxy-5-[5-(3,5-difluorophenyl)benzoxazol-2-yl]phenyl]-1,3-dioxo-2,3-dihydro-1H-isoindole-5-carboxylic acid] | 750 nM | – |
| CCCNc1ccc(N2C(=O)c3ccc(C(=O)O)cc3C2=O)cc1-c1nc2cc(Br)cc(F)c2o1 [Example 71, 2-[3-(5-Bromo-7-fluorobenzoxazol-2-yl)-4-propylaminophenyl]-1,3-dioxo-2,3-dihydro-1H-isoindole-5-carboxylic acid] | 500 nM | 500 nM |
| CCCNc1ccc(N2C(=O)c3ccc(C(=O)O)cc3C2=O)cc1-c1nc2cc(-c3cc4ccccc4o3)ccc2o1 [Example 108, 2-[4-Propylamino-3-[5-(2-benzofuranyl)benzoxazol-2-yl]phenyl]-1,3-dioxo-2,3-dihydro-1H-isoindole-5-carboxylic acid] | 2000 nM | 500 nM |
| COc1ccc(-c2nc3cc(-c4ccccc4)ccc3o2)cc1N1C(=O)c2ccc(C(=O)O)cc2C1=O [Example 9, 2-[2-Methoxy-5-(5-phenylbenzoxazol-2-yl)phenyl]-1,3-dioxo-2,3-dihydro-1H-isoindole-5-carboxylic acid] | 1000 nM | – |
| CCCNc1ccc(N2C(=O)c3ccc(C(=O)O)cc3C2=O)cc1-c1nc2ccc(C)cc2o1 [Example 65, 2-[3-(6-Methylbenzoxazol-2-yl)-4-propylaminophenyl]-1,3-dioxo-2,3-dihydro-1H-isoindole-5-carboxylic acid] | 5000 nM | 800 nM |
